We go through three compounds from US20100196283A1, “METHOD AND IMAGING MEDIUM FOR USE IN THE METHOD” (priority 2007, published 2010).

One series relates to mice (whole body). Nature of the series: In vivo 13C-MR spectroscopy in mice (whole body). Set-up: species or system C57Bl/6 mouse. The method, then:
200 μl of an imaging medium which was prepared as described in Example 1 was injected into a C57Bl/6 mouse over a time period of 6 s. The sodium ^13C1-lactate concentration in said imaging medium was 60-90 mM and 3 animals were used in the experiment. A rat size whole body coil (tuned for proton and carbon) was placed over the animal and ^13C-MR spectroscopy was carried out in a 9.4 T magnet. A dynamic set of ^13C-MR spectra (in total 30) was acquired every 3 s with a 15 degree RF pulse. […] The following decay times were calculated from the MR spectra: ^13C1-pyruvate 23 s, ^13C1-alanine 33 s and ^13C1-bicarbonate 24 s.

For another series, the system named is Hep-G2 cells. Kind of series: In vitro 13C-MR spectroscopy in Hep-G2 cells. Type of series: in vitro ADME. As for the experimental part:
An imaging medium was prepared as described in Example 1 and 25 μl of the imaging medium (2.7 mM sodium ^13C1-lactate) was mixed into 10 M Hep-G2 cells. A dynamic set of ^13C-MR spectra was acquired every 5 s with a 15 degree RF pulse. ^13C1-pyruvate was clearly building up over time. The average conversion was 0.3% with a peak conversion (0.4%) approximately 20 s into the experiment.

Series [1] is described as follows: Solid state polarisation by solid state 13C-NMR after DNP. Type of series: physicochemical. An excerpt: The level of polarisation may for instance be determined by solid state ^13C-NMR measurements in solid hyperpolarised ^13C-lactate, e.g. solid hyperpolarised ^13C-lactate obtained by dynamic nuclear polarisation (DNP) of ^13C-lactate. The solid state ^13C-NMR measurement preferably consists of a simple pulse-acquire NMR sequence using a low flip angle. The signal intensity of the hyperpolarised ^13C-lactate in the NMR spectrum is compared with signal intensity of ^13C-lactate in a NMR spectrum acquired before the polarisation process. The level of polarisation is then calculated from the ratio of the signal intensities before and after polarisation.
The probe is inserted into the probe-retaining container, submerged in the liquid helium and irradiated with microwaves. The microwave frequency may be determined from the EPR line of the DNP agent, which depends on the magnetic field of the magnet as 28.0 GHz/T. The optimal microwave frequency may be determined by adjusting the frequency for maximal NMR signal. Preferably, the optimal microwave frequency is in the about 94 GHz for a magnet charged to 3.35 T, 110 GHz for a magnet charged to 4 T, 140 GHz for a magnet charged to 5 T and 200 GHz for a magnet charged to 7 T. The power may be chosen between 50 and 200 mW, dependent on the probe size. The level of polarisation may be monitored as earlier described by for instance acquiring solid state ^13C-NMR signals of the probe during microwave irradiation. Generally, a saturation curve is obtained in a graph showing NMR signal vs. time. […] A solid state ^13C-NMR measurement suitably consists of a simple pulse-acquire NMR sequence using a low flip angle. […] The polarisation is then calculated from the ratio of the signal intensities before and after DNP.
To a micro test tube was added sodium ^13C1-L-lactate solution (78.5 mg, Aldrich, 50% w/w sodium ^13C1-lactate). […] Polarisation was followed by solid state ^13C-NMR and the solid state polarisation was determined to be 20%.

Series [2] in a line: Liquid state polarisation by liquid state 13C-NMR at 400 MHz. The class given is physicochemical. The method, then:
In a similar way, the level of polarisation for dissolved hyperpolarised ^13C-lactate may be determined by liquid state NMR measurements. Again the signal intensity of the dissolved hyperpolarised ^13C-lactate is compared with the signal intensity of the dissolved ^13C-lactate before polarisation. The level of polarisation is then calculated from the ratio of the signal intensities of ^13C-lactate before and after polarisation.
After 60 min dynamic nuclear polarisation, the frozen polarised composition obtained was dissolved in 6 ml phosphate buffer (20 mM, pH 7.4, 100 mg/l EDTA). The pH of the final solution containing the dissolved composition was 7.4±0.1. The sodium ^13C1-L-lactate concentration in said final solution was 60±2 mM.
Liquid state polarisation was determined by liquid state ^13C-NMR at 400 MHz to be 18-20%.
After an overnight dynamic nuclear polarisation, the frozen polarised composition obtained was dissolved in 6 ml phosphate buffer (40 mM, pH 7.3, osmolality match to 200 mM with NaCl, 100 mg/l EDTA, 1 eq. NaOH). The pH of the final solution containing the dissolved composition was 7.1. The D-lactate concentration in said final solution was 40 mM.
(§1) Liquid state polarisation was determined by liquid state ^13C-NMR at 400 MHz to be 14%. The liquid state relaxation (T1 at 9.4 T) was determined to 44 s.

A further series deals with mice (heart). Kind of series: In vivo 13C-MR spectroscopy in mice (heart). The note with it: heart surface coil; 200 μl of about 60 mM imaging medium; 9.4 T. More on the design: species or system C57Bl/6 mouse. As for the experimental part: 200 μl of an imaging medium which was prepared as described in Example 1 was injected into a C57Bl/6 mouse over a time period of 6 s. The sodium ^13C1-lactate concentration in said imaging medium was about 60 mM and 2 animals were used in the experiment. A surface coil (tuned for proton and carbon) was positioned over the heart of the animal and ^13C-MR spectroscopy was carried out in a 9.4 T magnet. A dynamic set of ^13C-MR spectra (in total 20) was acquired every 5 s with a 30 degree RF pulse. Again a significant amount of metabolism was seen including ^13C1-pyruvate (approximately 2% of the ^13C1-lactate signal), followed by ^13C1-alanine at a later point of time. ^13C1-bicarbonate (approximately 0.5% of the ^13C1-lactate signal) was observable at a similar peak time as ^13C1-pyruvate (FIG. 5).

In another series the test system is mice (liver). Kind of series: In vivo 13C-MR spectroscopy in mice (liver). Set-up: species or system C57Bl/6 mouse. The conditions noted are these: liver surface coil; 200 μl of about 60 mM imaging medium; 9.4 T. As for the experimental part: 200 μl of an imaging medium which was prepared as described in Example 1 was injected into a C57Bl/6 mouse over a time period of 6 s. The sodium ^13C1-lactate concentration in said imaging medium was about 60 mM. A surface coil (tuned for proton and carbon) was positioned over the liver of the animal and ^13C-MR spectroscopy was carried out in a 9.4 T magnet. A dynamic set of ^13C-MR spectra (in total 20) was acquired every 5 s with a 30 degree RF pulse. Again a significant amount of metabolism was seen including ^13C1-pyruvate (approximately 3% of the ^13C1-lactate signal), followed by ^13C1-alanine (approximately 3.5% of the ^13C1-lactate signal) at a later point of time (FIG. 3).

A short description of series [3]: Liquid state relaxation (T1 at 9.4 T). Type of series: physicochemical. The note with it: Example 5b. As for the experimental part: as §1
The nature of series [4]: T1 relaxation in human full blood at 37° C. The class given is physicochemical. An excerpt:
The isotopic enrichment of the hyperpolarised ^13C-lactate used in the method of the invention is preferably at least 75%, more preferably at least 80% and especially preferably at least 90%, an isotopic enrichment of over 90% being most preferred. Ideally, the enrichment is 100%. ^13C-lactate used in the method of the invention may be isotopically enriched at the C1-position (in the following denoted ^13C1-lactate), at the C2-position (in the following denoted ^13C2-lactate), at the C3-position (in the following denoted ^13C3-lactate), at the C1- and the C2-position (in the following denoted ^13C1,2-lactate), at the C1- and the C3-position (in the following denoted ^13C1,3-lactate), at the C2- and the C3-position (in the following denoted ^13C2,3-lactate) or at the C1-, C2- and C3-position (in the following denoted ^13C1,2,3-lactate). Isotopic enrichment at the C1-position is the most preferred since ^13C1-lactate has a higher, i.e. longer T1 relaxation in human full blood at 37° C. than ^13C-lactate which is isotopically enriched at other C-positions.

[5] abbreviates: 200 μl of 60-90 mM imaging medium injected over 6 s, 9.4 T.

Structures are written as SMILES.

For the compound `C[C@H](O)[13C](=O)[O-].[Na+]` [sodium ^13C1-L-lactate], the “13C1-alanine signal as % of the 13C1-lactate signal” value with mice (whole body) (setting [5]) is “approximately 1.5%”; with mice (liver), “approximately 3.5%”. Also, the “13C1-bicarbonate signal as % of the 13C1-lactate signal” value with mice (whole body) (setting [5]) and in the series with mice (heart) was “approximately 0.5%” each time. For the same compound, the figures for the “13C1-pyruvate signal as % of the 13C1-lactate signal” value with mice (whole body) (setting [5]), with mice (heart) and in the series with mice (liver) were “approximately 2%”, “approximately 2%” and “approximately 3%”, respectively. Besides, the “decay time of 13C1-alanine signal” value in the series with mice (whole body) (calculated from the MR spectra) was 33 s. The “decay time of 13C1-bicarbonate signal” value with mice (whole body) (calculated from the MR spectra) is 24 s. For the same compound, the “decay time of 13C1-pyruvate signal” value in the series with mice (whole body) (calculated from the MR spectra) was 23 s. Further, in the series with Hep-G2 cells (25 μl imaging medium (2.7 mM sodium 13C1-lactate) mixed into 10 M Hep-G2 cells), the “peak conversion to 13C1-pyruvate” value is reported as 0.4%. The “average conversion to 13C1-pyruvate” value in the series on Hep-G2 cells (25 μl imaging medium (2.7 mM sodium 13C1-lactate) mixed into 10 M Hep-G2 cells, spectra every 5 s) is 0.3%. In addition, the “time of peak conversion to 13C1-pyruvate” value in the series with Hep-G2 cells (Hep-G2 cells, time into the experiment) is recorded as “approximately 20 s”. For the same compound, the solid state polarisation in series [1] (Example 1a, aqueous trityl radical and Gd-chelate solutions, DNP at 1.2 K, 3.35 T, 94 GHz) is given as 20%; in series [1] (Example 2, water/glycerol mixture (75:25) for trityl and Gd-chelate solutions), 17-20%; in series [1] (Example 3, water/glycerol mixture (50:50) for trityl and Gd-chelate solutions), 25%. Also, the liquid state polarisation in series [2] (Example 1b, after 60 min DNP, dissolved in 6 ml phosphate buffer pH 7.4, 13C-NMR at 400 MHz) is listed as 18-20%; in series [2] (Example 2, water/glycerol mixture (75:25), dissolved as in Example 1b), 15-20%; in series [2] (Example 3, water/glycerol mixture (50:50), dissolved as in Example 1b), 25%. Further, in the series with mice (liver), the 13C1-bicarbonate levels observed result is reported as “very low levels”.

In series [2] (Example 5b, overnight DNP of D-lactic acid, dissolved in phosphate buffer with 1 eq. NaOH, 13C-NMR at 400 MHz), `C[C@@H](O)C(=O)O` [D-lactate] came in with a liquid state polarisation of 14%. Also, in series [3], the “liquid state relaxation (T1)” value is recorded as 44 s.

With `C[C@H](O)[13C](=O)O` [^13C1-lactate], in series [4], the “T1 relaxation versus 13C-lactate enriched at other C-positions” value is “longer”.
